Assay [1] has as its system Patients with progressive mCRPC. Description: Clinical study of compound (1A) in progressive mCRPC patients: PSA change from baseline by activating AR gene alteration status. It is filed as in vivo, human. The conditions noted are these: for subjects with PSA decline of ≥50% (PSA response): oral 10-150 mg daily with corticosteroids, on ADT, prior ARSi. From the text: Patients with progressive mCRPC were enrolled in the clinical trial to study the effect of a CYP11A1 inhibitor 2-(isoindolin-2-ylmethyl)-5-((1-(methylsulfonyl)-piperidin-4-yl)methoxy)-4H-pyran-4-one (1A). The patients were on ADT therapy and had previously received androgen receptor signalling inhibitor (ARSi) therapy and chemotherapy, or were ineligible for chemotherapy. Five different daily dose levels of compound (1A) with dexamethasone and fludrocortisone were given orally to 27 patients in the dose escalation/de-escalation part. Corticosteroid doses were allowed to be adjusted during the trial based on the subject's clinical condition. The daily doses were 10 mg (5 mg b.i.d), 30 mg (15 mg b.i.d.), 50 mg (25 mg b.i.d), 100 mg (50 mg b.i.d.), and 150 mg (75 mg b.i.d.). In a separate dosing evaluation part, once daily dosing of 25 mg of compound (1A), and two different glucocorticoid replacement therapies, hydrocortisone and prednisone, were evaluated in 14 patients. Subjects were allowed to continue the therapy until disease progression or intolerable toxicity. Anti-tumour activity was determined by measuring change in the PSA (prostate-specific antigen) value in PSA evaluable patient population (n=37, at least 4-week value available). A decrease in the PSA value indicates anti-tumour activity. PSA response in a patient was defined as at least 50% decline from the baseline PSA value.
Existence of activating AR-LBD somatic point mutations and AR gene amplification were analysed in plasma cfDNA samples obtained from the patients using the OncoBEAM® prostate cancer digital PCR assay panel (Sysmex Inostics, Inc.) and Guardant360 CDx (Guardant Health, Inc) assay panel. The assay panels were utilized to test the existence of activating AR-LBD point mutations including L702H, V716M, V716L, W742C, W742L, H875Y, F877L, T878A, T878S, D891Y, M896T and M896V.

For assay [2] the test system is unchanged. Nature of the assay: Clinical study of compound (1B) in progressive mCRPC patients: PSA change from baseline by activating AR gene alteration status. It is filed as in vivo, human. The conditions noted are these: for subjects with PSA decline of ≥50% (PSA response): oral 10-20 mg daily with corticosteroids, on ADT, prior ARSi. From the text:
Patients with progressive mCRPC were enrolled in the clinical trial to study the effect of a CYP11A1 inhibitor 2-5-((1-(methylsulfonyl)piperidin-4-yl)methoxy)-2-((5-(trifluoromethyl) isoindolin-2-yl)methyl)-4/-pyran-4-one (1B). The patients were on ADT therapy and had previously received androgen receptor signalling inhibitor (ARSi) therapy and chemotherapy, or were ineligible for chemotherapy. Three different daily dose levels of compound (1B) with hydrocortisone and fludro-cortisone were given orally to 13 subjects in the dose escalation part. Corticosteroid doses were allowed to be adjusted during the trial based on the subject's clinical condition. The daily doses were 10 mg (10 mg q.d), 15 mg (15 mg q.d) and 20 mg (20 mg q.d). In a separate dosing evaluation part, twice daily dosing of 5 mg and 10 mg of compound (1B), and different glucocorticoid replacement therapy, dexamethasone, and different hydrocortisone dosing regimen were evaluated in 16 patients. Subjects were allowed to continue the therapy until disease progression or intolerable toxicity. Anti-tumour activity was determined by measuring change in the PSA (prostate-specific antigen) value. A decrease in the PSA value indicates anti-tumour activity. PSA response in a patient was defined as at least 50% decline from the baseline PSA value.
Existence of activating AR-LBD somatic point mutations and AR gene amplification were analysed in plasma cfDNA samples obtained from the patients using the OncoBEAM® prostate cancer digital PCR assay panel (Sysmex Inostics, Inc.) and Guardant360 CDx (Guardant Health, Inc) assay panel. The assay panels were utilized to test the existence of activating AR-LBD mutations including L702H, V716M, V716L, W742C, W742L, H875Y, F877L, T878A, T878S, D891Y, M896T and M896V.

For the compound `CS(=O)(=O)N1CCC(COc2coc(CN3Cc4ccccc4C3)cc2=O)CC1` [1A, 2-(isoindolin-2-ylmethyl)-5-((1-(methylsulfonyl)piperidin-4-yl)methoxy)-4H-pyran-4-one], in assay [1] (12 out of 13 PSA responders), the “subjects with a PSA response (decline of ≥50%) that were activating AR gene alteration positive” value was determined as 92.3%. For the same compound, the “subjects with PSA decline of ≥50% (PSA response)” value turned out to be 70.6% in assay [1] (subjects with activating AR gene alteration (12 out of 17)) and 5.0% in assay [1] (subjects without an activating AR gene alteration (1 out of 20)). Also, the “anti-tumour activity (PSA change) in subjects with versus without activating AR gene alteration” value in assay [1] (with alteration n=17 compared to without n=20) is given as “substantially higher”.

Consider `CS(=O)(=O)N1CCC(COc2coc(CN3Cc4ccc(C(F)(F)F)cc4C3)cc2=O)CC1` [1B, 5-((1-(methylsulfonyl)piperidin-4-yl)methoxy)-2-((5-(trifluoromethyl)isoindolin-2-yl)methyl)-4H-pyran-4-one], for which, in assay [2] (6 out of 6 PSA responders), the “subjects with a PSA response (decline of ≥50%) that were activating AR gene alteration positive” value was determined as 100%. In addition, the “subjects with PSA decline of ≥50% (PSA response)” value stood at 35.3% in assay [2] (subjects with activating AR gene alteration (6 out of 17)) and 0% in assay [2] (subjects without an activating AR gene alteration (0 out of 8)). In addition, the “anti-tumour activity (PSA change) in subjects with versus without activating AR gene alteration” value in assay [2] (with alteration n=17 compared to without n=8) is reported as “substantially higher”.

These data come from patent US20250367184A1, “CYP11A1 INHIBITOR FOR USE IN THE TREATMENT OF PROSTATE CANCER” (ORION CORPORATION, priority 2021, published 2025).
